Reference: the Kinase Knowledgebase extract (Sharma et al. 2016)

Molecular target: PIK3CB;PIK3CG;PIK3CD;PIK3CA (human) (UniProt P48736)
Test: Inhibition of PIK3CA/PIK3CB/PIK3CD/PIK3CG Kinase Activity

| IC50 [nM] | SMILES |
| --- | --- |
| 51 | COc1ccc(CC2CCN(C(C)=O)CC2)c(Nc2nc3ccccc3nc2NS(=O)(=O)c2cccnc2)c1 |
| 98 | COCCc1ccc(OC)cc1Nc1nc2ccccc2nc1NS(=O)(=O)C1CCNCC1 |
| 72 | COc1ccc(CCCO)c(Nc2nc3ccccc3nc2NS(=O)(=O)C(C)C)c1 |
| 26 | COc1ccc(CC2CCC(O)CC2)c(Nc2nc3ccccc3nc2NS(=O)(=O)c2ccc(CN(C)C)cc2)c1 (stereo unspecified) |
| 550 | COc1ccc(C(CO)CO)c(Nc2nc3ccccc3nc2NS(=O)(=O)c2cn(C)cn2)c1 |
| 200 | COCCc1ccc(OC)cc1Nc1nc2ccccc2nc1NS(=O)(=O)c1cn(C)c(CS(C)(=O)=O)n1 |
| 95 | COc1ccc(CCO)c(Nc2nc3ccccc3nc2NS(C)(=O)=O)c1 |
| 200 | COc1ccc(C(C)C)c(Nc2nc3ccccc3nc2NS(=O)(=O)c2cn(C)cn2)c1 |
| 190 | COc1ccc(CCS(C)(=O)=O)c(Nc2nc3ccccc3nc2NS(=O)(=O)c2c(C)noc2C)c1 |
| 1840 | COc1ccc(CCOC(=O)[C@@H](NC(=O)OCC2c3ccccc3-c3ccccc32)C(C)C)c(Nc2nc3ccccc3nc2NS(=O)(=O)c2cn(C)cn2)c1 |
| 180 | COc1ccc(CC2CCCC2)c(Nc2nc3ccccc3nc2NS(=O)(=O)c2cn(C)cn2)c1 |
| 12 | COc1ccc(CCCO)c(Nc2nc3ccccc3nc2NS(=O)(=O)c2cccc(NC(=O)CO)c2)c1 |
| 23 | COc1ccc(CCO)c(Nc2nc3ccccc3nc2NS(=O)(=O)c2ccc(F)cc2)c1 |
| 11 | COc1ccc(CCCN(C)C)c(Nc2nc3ccccc3nc2NS(=O)(=O)c2cn(C)cn2)c1 |
| 87 | COc1ccc(CCS(C)(=O)=O)c(Nc2nc3ccccc3nc2NS(=O)(=O)c2cn(C)c(CN(C)C)n2)c1 |
| 72 | COc1ccc(CN2CCOCC2)c(Nc2nc3ccccc3nc2NS(=O)(=O)c2cccnc2)c1 |
| 28 | COc1ccc(CCCO)c(Nc2nc3ccccc3nc2NS(=O)(=O)c2cn(C)c(CN(C)C)n2)c1 |
| 100 | COc1cc(Nc2nc3ccccc3nc2NS(=O)(=O)c2cn(C)cn2)cc(C(=O)NCCO)c1 |
| 110 | COc1ccc(CN2CCN(C)CC2)c(Nc2nc3ccccc3nc2NS(=O)(=O)c2ccc(F)cc2)c1 |
| 200 | COc1ccc(CCS(C)(=O)=O)c(Nc2nc3ccccc3nc2NS(C)(=O)=O)c1 |
| 1100 | COc1cc(CN(C)C)cc(Nc2nc3ccccc3nc2NS(=O)(=O)c2cn(C)cn2)c1 |
| 49 | COc1ccc(CN2CCN(C)CC2)c(Nc2nc3ccccc3nc2NS(=O)(=O)c2cccnc2)c1 |

| IC50 [nM] | SMILES |
| --- | --- |
| 5620 | COc1cc(Nc2nc3ccccc3nc2NS(C)(=O)=O)cc(C(=O)N2CCOCC2)c1 |
| 89 | COc1ccc(CC2CCN(C(C)=O)CC2)c(Nc2nc3ccccc3nc2NS(=O)(=O)c2cn(C)cn2)c1 |
| 43 | COc1ccc(CC2CCN(C)CC2)c(Nc2nc3ccccc3nc2NS(=O)(=O)c2cn(C)cn2)c1 |
| 350 | COc1ccc(CCS(C)(=O)=O)c(Nc2nc3ccccc3nc2NS(=O)(=O)CCCS(C)(=O)=O)c1 |
| 59 | CCS(=O)(=O)Nc1nc2ccccc2nc1Nc1cc(OC)ccc1CCCO |
| 760 | COc1cc(Nc2nc3ccccc3nc2NS(=O)(=O)c2cn(C)cn2)cc(C(=O)N(C)C)c1 |
| 10 | COc1ccc(CC2CCS(=O)(=O)CC2)c(Nc2nc3ccccc3nc2NS(=O)(=O)c2ccc(CN(C)C)cc2)c1 |
| 49 | COc1ccc(CC2CCOCC2)c(Nc2nc3ccccc3nc2NS(=O)(=O)c2cn(C)cn2)c1 |
| 86 | COc1ccc(CCO)c(Nc2nc3ccccc3nc2NS(=O)(=O)C2CCS(=O)(=O)C2)c1 (stereo unspecified) |
| 420 | COc1ccc(CC2CC(C)(C)N(C)C(C)(C)C2)c(Nc2nc3ccccc3nc2NS(=O)(=O)c2cn(C)cn2)c1 |
| 400 | COCCNC(=O)c1cc(Nc2nc3ccccc3nc2NS(=O)(=O)c2cn(C)cn2)cc(OC)c1 |
| 300 | COc1ccc(S(=O)(=O)NCCO)c(Nc2nc3ccccc3nc2NS(=O)(=O)CCCS(C)(=O)=O)c1 |
| 88 | CCS(=O)(=O)Nc1nc2ccccc2nc1Nc1cc(OC)ccc1CCS(C)(=O)=O |
| 43 | COc1ccc(CCO)c(Nc2nc3ccccc3nc2NS(=O)(=O)c2ccc(CN3CCC(F)CC3)cc2)c1 |
| 75 | COc1ccc(CCO)c(Nc2nc3ccccc3nc2NS(=O)(=O)CCCSC)c1 |
| 30 | COc1ccc(CC2CCOCC2)c(Nc2nc3ccccc3nc2NS(=O)(=O)c2ccc(CN(C)C)cc2)c1 |
| 106 | COc1ccc(CCO)c(Nc2nc3ccccc3nc2NS(=O)(=O)c2ccc(C)[n+]([O-])c2)c1 |
| 57 | COc1ccc(CCO)c(Nc2nc3ccccc3nc2NS(=O)(=O)C2CCCCC2)c1 |
| 27 | COc1ccc(CC2CCOCC2)c(Nc2nc3ccccc3nc2NS(=O)(=O)c2cccnc2)c1 |
| 300 | COCCc1ccc(OC)cc1Nc1nc2ccccc2nc1NS(=O)(=O)C1CCN(C(C)=O)CC1 |
| 70 | COC(=O)CCc1ccc(S(=O)(=O)Nc2nc3ccccc3nc2Nc2cc(OC)ccc2CCO)cc1 |
| 970 | COc1cc(CN2CCN(C)CC2)cc(Nc2nc3ccccc3nc2NS(=O)(=O)c2cccnc2)c1 |

| IC50 [nM] | SMILES |
| --- | --- |
| 40 | COc1ccc(CCO)c(Nc2nc3ccccc3nc2NS(=O)(=O)c2cccnc2)c1 |
| 480 | COc1ccc(CCCO)c(Nc2nc3ccccc3nc2NS(=O)(=O)c2cccc(NC(=O)COCc3ccccc3)c2)c1 |
| 35 | COc1ccc(CC2CCSCC2)c(Nc2nc3ccccc3nc2NS(=O)(=O)c2ccc(CN(C)C)cc2)c1 |
| 720 | COc1ccc(CCCO)c(Nc2nc3ccccc3nc2NS(=O)(=O)C2CCN(C(=O)OCc3ccccc3)CC2)c1 |
| 150 | COc1ccc(CC2CCOCC2)c(Nc2nc3ccccc3nc2NS(=O)(=O)c2ccc(F)cc2)c1 |
| 30 | COc1ccc(CC2CCS(=O)(=O)CC2)c(Nc2nc3ccccc3nc2NS(=O)(=O)c2cn(C)cn2)c1 |
| 60 | CCS(=O)(=O)Nc1nc2ccccc2nc1Nc1cc(OC)ccc1CCO |
| 84 | COc1ccc(CCCO)c(Nc2nc3ccccc3nc2NS(=O)(=O)c2cn(C)c(CO)n2)c1 |
| 83 | CCCCO.COCCc1ccc(OC)cc1Nc1nc2ccccc2nc1NS(=O)(=O)c1cn(C)cn1 |
| 110 | COc1ccc(CC2CCN(C)CC2)c(Nc2nc3ccccc3nc2NS(C)(=O)=O)c1 |
| 490 | COc1ccc(CC2CCCCC2)c(Nc2nc3ccccc3nc2NS(=O)(=O)c2cccnc2)c1 |
| 27 | COc1ccc(CCO)c(Nc2nc3ccccc3nc2NS(=O)(=O)c2ccc(NC(=O)CN(C)C)cc2)c1 |
| 65 | COc1ccc(CCO)c(Nc2nc3ccccc3nc2NS(=O)(=O)c2ccc(NC(=O)CO)cc2)c1 |
| 1650 | COC(=O)c1ccc(OC)cc1Nc1nc2ccccc2nc1NS(C)(=O)=O |
| 44 | CCCS(=O)(=O)Nc1nc2ccccc2nc1Nc1cc(OC)ccc1CCO |
| 34 | COc1ccc(CCO)c(Nc2nc3ccccc3nc2NS(=O)(=O)c2ccc(OCCO)cc2)c1 |
| 32 | COc1ccc(CCCO)c(Nc2nc3ccccc3nc2NS(=O)(=O)c2ccc(NC(=O)CN(C)C)cc2)c1 |
| 100 | COc1ccc(CCOC(=O)[C@@H](N)C(C)C)c(Nc2nc3ccccc3nc2NS(=O)(=O)c2cn(C)cn2)c1 |
| 42 | COc1ccc(CCS(C)(=O)=O)c(Nc2nc3ccccc3nc2NS(=O)(=O)c2ccccc2)c1 |
| 350 | COc1cc(Nc2nc3ccccc3nc2NS(=O)(=O)CCCS(C)(=O)=O)cc(C(=O)NCCO)c1 |
| 100 | COc1ccc(CC2CCSCC2)c(Nc2nc3ccccc3nc2NS(=O)(=O)c2cn(C)cn2)c1 |
| 26 | COc1ccc(CCO)c(Nc2nc3ccccc3nc2NS(=O)(=O)c2ccc(CN(C)C)cc2)c1 |
